Molecular target: T1, TUBA1C (Homo sapiens, UniProt Q9BQE3)
T1 construct: endogenous protein in live HeLa cells, no tag; modified C-terminal peptides 423-449 and 431-449
Experiment: live-cell photoaffinity labelling, biotin enrichment, TMT LC-MS/MS
Assay type: cell-based
Details: covalent after UV 365 nm; live HeLa cells; C-terminal acidic region

T1 sequence (Q9BQE3 whole entry): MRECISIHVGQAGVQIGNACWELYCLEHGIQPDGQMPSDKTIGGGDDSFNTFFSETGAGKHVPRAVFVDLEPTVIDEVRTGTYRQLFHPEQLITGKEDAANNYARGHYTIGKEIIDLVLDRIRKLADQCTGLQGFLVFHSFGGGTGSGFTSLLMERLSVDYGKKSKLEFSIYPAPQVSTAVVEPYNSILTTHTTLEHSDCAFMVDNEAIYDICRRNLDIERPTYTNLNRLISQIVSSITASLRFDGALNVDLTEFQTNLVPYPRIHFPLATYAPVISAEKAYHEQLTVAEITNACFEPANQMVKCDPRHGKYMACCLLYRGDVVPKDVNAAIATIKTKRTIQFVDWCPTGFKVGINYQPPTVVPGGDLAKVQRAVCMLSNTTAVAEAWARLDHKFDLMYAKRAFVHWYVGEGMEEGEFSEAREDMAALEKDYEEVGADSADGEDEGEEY

| Structure (SMILES) | live-cell photoaffinity labelling, biotin enrichment, TMT LC-MS/MS |
| --- | --- |
| C#CCCC1(CCNCCCCNCCCN)N=N1 [compound 4, spermidine analog 4] | several tubulins (including TUBA1C) |
| C#CCCC1(CCNCCCNCCCCN)N=N1 [compound 5, spermidine analog 5] | several tubulins (including TUBA1C) |
